Here are results for two compounds from PMC3283556, “The Activities of Current Antimalarial Drugs on the Life Cycle Stages of Plasmodium: A Comparative Study with Human and Rodent Parasites” (PLoS Medicine, 2012).

Entries after “also recorded” stand apart in the source; their conditions may differ. Like-named read-outs stand apart in the source and are kept apart here.

In test [1] the test system is P. yoelii liver stage parasites (liver schizonts). Put plainly: P. yoelii liver stage assay in HepG2 cells (EEF immunofluorescence). In kind it is cell-based, Plasmodium yoelii. Particulars: for IC50: Plasmodium yoelii.
Test [2] concerns P. falciparum asexual blood stage parasites (strains NF54, D6, K1, W2, 7G8, TM90C2A, V1/S). Put plainly: [3H]-hypoxanthine incorporation growth inhibition assay, asexual blood stage. In kind it is cell-based, Plasmodium falciparum. Particulars: Plasmodium falciparum.
Test [3] concerns P. berghei oocyst formation. In words: Standard membrane feed assay, P. berghei oocysts in A. stephensi. Particulars: for transmission-blocking effect on P. berghei oocysts (words): 10 µM. In kind it is in vivo, Plasmodium berghei.
Test [4] concerns P. falciparum oocyst formation. In words: Standard membrane feed assay, P. falciparum oocysts in A. stephensi. In kind it is in vivo, Plasmodium falciparum. Particulars: 10 µM, gametocytes exposed 24 h before feeding. Here is the method: Gametocyte cultures were produced according to the same protocol as the Pf exflagellation assay. Pooled gametocyte cultures were evenly divided between compounds in fresh medium and incubated at 37°C for 24 h. The parasite pellets were then resuspended in fresh RBCs and human serum treated with the compounds to a 50% haematocrit and immediately fed to mosquitoes as described above and then maintained at 27°C/60%RH for 10–12 d before dissection and counting.
Figure 3 The transmission-blocking potential of selected antimalarials in three bioassays that cover different phases of Plasmodium vector stage development. (A) Assays examined exflagellation (P. falciparum), ookinete formation (P. berghei), or oocyst formation (P. falciparum). All antimalarials were screened at 10 µM. (B) The biological content of the in vitro P. berghei ookinete assay spans gamete formation, fertilization, zygote development, and ookinete formation. Ookinete formation was insensitive to most of the antimalarials tested. […] (D) The in vitro P. falciparum exflagellation assay exposes mature gametocytes to antimalarials for 24 h before triggering exflagellation. […] All experiments in triplicate. (E) The in vivo P. falciparum oocyst assay differs from the P. berghei oocyst assay in that mature gametocytes were exposed to the antimalarials in culture for 24 h before feeding to mosquitoes. […] NPC1161-B, lumefantrine, halofantrine, and mefloquine +RS isomer were also active. (n = 4–61 observations; average ± standard error of the mean [SEM]).

Take `COc1cc(N[C@H](C)CCCN)c2nccc(C)c2c1Oc1ccc(Cl)c(Cl)c1` [NPC-1161B]: the IC50 – broadly, the concentration needed to halve the response being measured – in test [1] (HepG2, box linked to liver schizont, read-out: IC50 (liver schizont, Figure 5)) is below 1000 nM; in test [1] (development of P. yoelii liver schizonts following infection of HepG2 cells, read-out: IC50 Parasite), 720 ± 70 nM; in test [2] (strain 7G8), around 50 nM; in test [2] (strain NF54), around 500 nM. Also, the “potency range against liver stages” value in test [1] (dose response) is “submicromolar range”. The “transmission-blocking effect on P. berghei oocysts (words)” value in test [3] is recorded as “most notable transmission-blocking activity; also recorded: showed potency”. Moreover, the inhibition (in general, the percentage by which the read-out fell short of the control) at 10 µM in test [3] (Plasmodium berghei) was above 90%. Also, the “transmission-blocking effect on P. falciparum oocysts (words)” value is “totally blocked transmission” in test [4] and “active; also recorded: showed potency” in test [4] (listed as NPC1161-B).

`CCCCN(CCCC)CCC(O)c1cc2c(Cl)cc(Cl)cc2c2cc(C(F)(F)F)ccc12` (centres unmarked) [halofantrine]: the IC50 in test [1] (HepG2, development of P. yoelii liver schizonts following infection of HepG2 cells, read-out: IC50 Parasite) was 2320 ± 1350 nM; in test [2], below 4 nM; in test [2] (multi-drug-resistant strains K1, W2 and 7G8) it was 0.3 nM. In addition, the “transmission-blocking effect on P. berghei oocysts (words)” value in test [3] is “impaired sporogony”. Besides, in test [4], the “transmission-blocking effect on P. falciparum oocysts (words)” value was “active; also recorded: impaired sporogony”.
